Data published in patent US12187723B2 (BRISTOL-MYERS SQUIBB COMPANY, priority 2019, dated 2025).

Assays:
human TLR8 = molecular target: T1, human TLR8 (Homo sapiens, UniProt Q9NR97); assay: TLR8 inhibition reporter assay (HEK-Blue SEAP); type: cell-based; conditions: HEK-Blue cells overexpressing human TLR8, R848 15.9 μM, 22 hour incubation
T1 construct: host or cells: HEK-Blue cells
T1 sequence (Q9NR97 27-1041): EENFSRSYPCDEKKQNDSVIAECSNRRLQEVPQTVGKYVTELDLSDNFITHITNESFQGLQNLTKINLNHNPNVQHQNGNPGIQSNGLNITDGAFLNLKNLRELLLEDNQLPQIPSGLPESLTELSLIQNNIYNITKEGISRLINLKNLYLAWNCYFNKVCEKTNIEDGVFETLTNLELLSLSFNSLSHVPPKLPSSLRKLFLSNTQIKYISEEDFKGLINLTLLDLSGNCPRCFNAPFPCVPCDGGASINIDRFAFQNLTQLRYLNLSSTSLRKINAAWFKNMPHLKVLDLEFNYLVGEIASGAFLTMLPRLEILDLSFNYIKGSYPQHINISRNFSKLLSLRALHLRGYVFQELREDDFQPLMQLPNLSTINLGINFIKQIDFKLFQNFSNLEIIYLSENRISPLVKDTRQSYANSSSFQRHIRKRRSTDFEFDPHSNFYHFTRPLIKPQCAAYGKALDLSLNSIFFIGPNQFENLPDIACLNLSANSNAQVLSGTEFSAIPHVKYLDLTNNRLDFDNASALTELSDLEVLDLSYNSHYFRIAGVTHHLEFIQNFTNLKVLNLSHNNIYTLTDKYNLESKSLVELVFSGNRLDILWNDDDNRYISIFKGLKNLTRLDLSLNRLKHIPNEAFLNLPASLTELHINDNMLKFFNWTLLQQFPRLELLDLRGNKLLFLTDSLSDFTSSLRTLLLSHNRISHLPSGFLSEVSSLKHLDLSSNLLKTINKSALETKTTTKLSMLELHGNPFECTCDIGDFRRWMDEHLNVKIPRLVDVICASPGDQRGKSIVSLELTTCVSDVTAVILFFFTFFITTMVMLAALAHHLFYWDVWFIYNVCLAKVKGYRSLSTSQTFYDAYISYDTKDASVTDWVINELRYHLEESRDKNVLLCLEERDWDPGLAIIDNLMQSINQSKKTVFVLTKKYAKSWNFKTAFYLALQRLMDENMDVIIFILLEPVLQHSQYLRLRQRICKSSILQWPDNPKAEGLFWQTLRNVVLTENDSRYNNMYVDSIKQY
Summary of the method: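 Dose–response from 0.05 nM to 50 μM was run in HEK-Blue human TLR7, TLR8 and TLR9 reporter cells. After 30 min at room temperature with compound, ligand was added (TLR7 gardiquimod 7.5 μM; TLR8 R848 15.9 μM; TLR9 ODN2006 5 nM) and SEAP measured next day, at 22 h.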

human TLR7 = molecular target: T2, human TLR7 (Homo sapiens, UniProt Q9NYK1); assay: TLR7 inhibition reporter assay (HEK-Blue SEAP); type: cell-based; conditions: HEK-Blue cells overexpressing human TLR7, gardiquimod 7.5 μM, 22 hour incubation
T2 construct: host or cells: HEK-Blue cells
T2 sequence (Q9NYK1 27-1049): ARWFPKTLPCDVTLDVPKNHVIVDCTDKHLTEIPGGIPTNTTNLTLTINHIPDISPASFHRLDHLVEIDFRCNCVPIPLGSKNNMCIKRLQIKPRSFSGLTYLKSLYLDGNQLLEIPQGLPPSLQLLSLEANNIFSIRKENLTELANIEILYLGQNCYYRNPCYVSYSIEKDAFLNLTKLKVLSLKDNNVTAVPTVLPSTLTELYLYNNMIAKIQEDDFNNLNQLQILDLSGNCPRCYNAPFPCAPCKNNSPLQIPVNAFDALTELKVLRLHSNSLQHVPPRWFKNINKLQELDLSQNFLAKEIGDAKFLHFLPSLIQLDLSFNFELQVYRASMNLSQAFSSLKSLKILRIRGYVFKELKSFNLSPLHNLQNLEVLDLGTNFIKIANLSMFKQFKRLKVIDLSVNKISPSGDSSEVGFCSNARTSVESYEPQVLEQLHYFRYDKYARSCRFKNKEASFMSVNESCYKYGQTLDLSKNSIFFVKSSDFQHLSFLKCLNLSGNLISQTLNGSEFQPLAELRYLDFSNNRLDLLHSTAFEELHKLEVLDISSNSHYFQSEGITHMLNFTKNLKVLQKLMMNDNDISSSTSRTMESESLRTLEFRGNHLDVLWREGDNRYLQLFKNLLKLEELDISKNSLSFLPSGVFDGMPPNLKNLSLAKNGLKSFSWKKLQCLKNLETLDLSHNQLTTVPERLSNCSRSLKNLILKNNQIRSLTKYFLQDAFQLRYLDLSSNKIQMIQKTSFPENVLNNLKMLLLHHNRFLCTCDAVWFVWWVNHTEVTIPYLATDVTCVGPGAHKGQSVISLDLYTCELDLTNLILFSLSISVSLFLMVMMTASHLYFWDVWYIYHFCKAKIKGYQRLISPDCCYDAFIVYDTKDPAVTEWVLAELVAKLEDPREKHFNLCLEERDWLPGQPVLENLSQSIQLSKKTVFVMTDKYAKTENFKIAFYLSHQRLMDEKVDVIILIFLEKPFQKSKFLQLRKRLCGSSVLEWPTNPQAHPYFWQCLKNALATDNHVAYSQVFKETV
Summary of the method: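 In this cell reporter format, test compounds at 0.05 nM-50 μM final incubate 22 h with seeded cells (TLR7 15000, TLR8 20,000 per well). SEAP read-out by HEK-Blue Detection medium yields % inhibition relative to agonist/DMSO and known-inhibitor wells.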

Row | IC50 (human TLR8) [nM] | IC50 (human TLR7) [nM] | SMILES
1 | 14.5 | 13.1 | Cc1cc2c(cc1-c1cc(C)c3ncnn3c1)[nH]c(=O)n2[C@@H]1CCCN(C(C)C)C1 [Example 17, (R)-1-(1-isopropylpiperidin-3-yl)-6-methyl-5-(8-methyl-[1,2,4]triazolo[1,5-a]pyridin-6-yl)-1,3-dihydro-2H-benzo[d]imidazol-2-one]
2 | 0.74 | 1.84 | CCc1cc2c(cc1-c1cc(OC)c3ncnn3c1)[nH]c(=O)n2[C@H]1CC[C@@H](N(CC)CC)CC1 [Example 169, 1-((1s,4s)-4-(diethylamino)cyclohexyl)-6-ethyl-5-(8-methoxy-[1,2,4]triazolo[1,5-a]pyridin-6-yl)-1,3-dihydro-2H-benzo[d]imidazol-2-one]
3 | 1.27 | 6.25 | CCc1cc2c(cc1-c1cc(OC)c3ncnn3c1)[nH]c(=O)n2[C@H]1CC[C@@H](NC2COC2)CC1 [Example 170, 6-ethyl-5-(8-methoxy-[1,2,4]triazolo[1,5-a]pyridin-6-yl)-1-((1s,4s)-4-(oxetan-3-ylamino)cyclohexyl)-1,3-dihydro-2H-benzo[d]imidazol-2-one]
4 | 3.03 | 4.56 | CCc1cc2c(cc1-c1cc(OC)c3ncnn3c1)[nH]c(=O)n2[C@@H]1CCCN(CC)C1 [Example 171, (R)-6-ethyl-1-(1-ethylpiperidin-3-yl)-5-(8-methoxy-[1,2,4]triazolo[1,5-a]pyridin-6-yl)-1,3-dihydro-2H-benzo[d]imidazol-2-one]
5 | 1.75 | 1.45 | CCc1cc2c(cc1-c1cc(OC)c3ncnn3c1)[nH]c(=O)n2[C@@H]1CCCN(C(C)C)C1 [Example 172, (R)-6-ethyl-1-(1-isopropylpiperidin-3-yl)-5-(8-methoxy-[1,2,4]triazolo[1,5-a]pyridin-6-yl)-1,3-dihydro-2H-benzo[d]imidazol-2-one]
6 | 18 | 32 | CCc1cc2c(cc1-c1cc(OC)c3ncnn3c1)[nH]c(=O)n2[C@@H]1CCCN(C2COC2)C1 [Example 173, (R)-6-ethyl-5-(8-methoxy-[1,2,4]triazolo[1,5-a]pyridin-6-yl)-1-(1-(oxetan-3-yl)piperidin-3-yl)-1,3-dihydro-2H-benzo[d]imidazol-2-one]
7 | 1.39 | 1.14 | CCc1cc2c(cc1-c1cc(OC)c3ncnn3c1)[nH]c(=O)n2[C@@H]1CCCN(C)C1 [Example 174, (R)-6-ethyl-5-(8-methoxy-[1,2,4]triazolo[1,5-a]pyridin-6-yl)-1-(1-methylpiperidin-3-yl)-1,3-dihydro-2H-benzo[d]imidazol-2-one]
8 | 2.23 | 0.83 | CCc1cc2c(cc1-c1cc(OC)c3ncnn3c1)[nH]c(=O)n2[C@@H]1CCCN(CC2CCOCC2)C1 [Example 175, (R)-6-ethyl-5-(8-methoxy-[1,2,4]triazolo[1,5-a]pyridin-6-yl)-1-(1-((tetrahydro-2H-pyran-4-yl)methyl)piperidin-3-yl)-1,3-dihydro-2H-benzo[d]imidazol-2-one]
9 | 4.34 | 1.07 | CCc1cc2c(cc1-c1cc(OC)c3ncnn3c1)[nH]c(=O)n2[C@@H]1CCCN(CC(C)C)C1 [Example 177, (R)-6-ethyl-1-(1-isobutylpiperidin-3-yl)-5-(8-methoxy-[1,2,4]triazolo[1,5-a]pyridin-6-yl)-1,3-dihydro-2H-benzo[d]imidazol-2-one]
10 | 2.62 | 0.81 | CCc1cc2c(cc1-c1cc(OC)c3ncnn3c1)[nH]c(=O)n2[C@@H]1CCCN(CC(CC)CC)C1 [Example 178, (R)-6-ethyl-1-(1-(2-ethylbutyl)piperidin-3-yl)-5-(8-methoxy-[1,2,4]triazolo[1,5-a]pyridin-6-yl)-1,3-dihydro-2H-benzo[d]imidazol-2-one]
11 | 2.48 | 1.06 | CCCN1CCC[C@@H](n2c(=O)[nH]c3cc(-c4cc(OC)c5ncnn5c4)c(CC)cc32)C1 [Example 179, (R)-6-ethyl-5-(8-methoxy-[1,2,4]triazolo[1,5-a]pyridin-6-yl)-1-(1-propylpiperidin-3-yl)-1,3-dihydro-2H-benzo[d]imidazol-2-one]
